This is an account of results in ChEMBL document CHEMBL1201862, “PubChem BioAssay data set” (2004).

What all share (assay): growth of human tumour cells (NCI), 48 h
The test system of assay [1] is MDA-MB-231.
In assay [2] the test system is SK-MEL-2.
In assay [3] the test system is OVCAR-4.
The test system of assay [4] is CCRF-CEM.
Assay [5] relates to KM12.
For assay [6], the system named is LOX IMVI.
Assay [7] concerns HT-29.
Assay [8] concerns A549.
The subject of assay [9] is SR.
For assay [10], the system named is 786-0.
The test system of assay [11] is HCT-15.
The test system of assay [12] is SNB-75.
Assay [13] deals with ACHN.
The subject of assay [14] is SF-295.
Assay [15] deals with COLO 205.
In assay [16] the test system is NCI-H226.
Assay [17] has as its system Malme-3M.
Assay [18] deals with MCF7.
The test system of assay [19] is A498.
Assay [20] deals with UACC-62.

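Tested at 5 concentrations; 48 h exposure; 96-well plates; endpoints linearly interpolated, else capped at highest concentration. GI50 = concentration required for 50% inhibition of growth.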 Calls of active or inactive are those of the source. No stated cut-off is given here; in the data, active = GI50 up to about 1.1 µM and inactive = higher.

As to `Fc1cc(-c2cc(-c3ccccc3)n[nH]2)c(Cl)cc1Cl`, the GI50 in assay [1] is 55.5 µM (inactive); in assay [2], > 100 µM (inactive); in assay [3], > 100 µM (inactive); in assay [4], 82.2 µM (inactive); in [5] it was > 100 µM (inactive); in assay [6], 99.1 µM (inactive). For the same molecule, the GI50 was > 100 µM (inactive) in assay [7]; > 100 µM (inactive) in [8]; > 100 µM (inactive) in assay [9]; > 100 µM (inactive) in [10]; > 100 µM in [11]; > 100 µM (inactive) in assay [12]. Further, the GI50 in [13] is 6.35 µM (inactive); in assay [14], > 100 µM (inactive); in [15] it was > 100 µM (inactive); in [16], 50.7 µM (inactive); in [17] it was > 100 µM (inactive).

In the case of `Cc1ccc(C(=O)N/N=C(\N=N\c2ccccc2C(=O)O)c2ccc(N(C)C)cc2)cc1`, the GI50 in [1] is > 100 µM (inactive); in assay [2] it was > 100 µM (inactive); in [3], 64.7 µM (inactive); in [4] it was 43.5 µM (inactive); in assay [5] it was 42.9 µM (inactive); in assay [6] it was > 100 µM (inactive). Moreover, the GI50 in assay [18] was > 100 µM (inactive); in assay [7], > 100 µM (inactive); in [8], 98.2 µM (inactive); in [10], > 100 µM (inactive); in assay [11] it was 64.7 µM; in assay [14], 41.6 µM (inactive). Further, the figures for the GI50 in assay [15] and in assay [16] were 35.2 µM (inactive) and > 100 µM (inactive), respectively.

For the molecule `O=C(c1cccs1)N(C(=O)N1CCC(c2ccccc2)CC1)c1ccccc1`, the GI50 in [1] is > 100 µM (inactive); in [2] it was 13.8 µM (inactive); in assay [19] it was 51.4 µM (inactive); in assay [20], 50.6 µM (inactive); in [4], 95.5 µM (inactive); in [5] it was 14.4 µM (inactive). For the same molecule, the GI50 in assay [6] is 41.5 µM (inactive); in assay [18], 35.5 µM (inactive); in assay [7] it was 25.4 µM (inactive); in [10], > 100 µM (inactive); in [11] it was 28.1 µM; in assay [13], 63.1 µM (inactive). The GI50 is 42.7 µM (inactive) in assay [14], 27.2 µM (inactive) in assay [15], 34 µM (inactive) in assay [16] and 15.8 µM (inactive) in [17].

Regarding `COc1cc(Br)c(CC2C3=C(CCN2C(=O)C2CCC2)CC(=O)CC3)cc1O` (stereo unspecified), the GI50 was 26.5 µM (inactive) in assay [1]; 36.1 µM (inactive) in [2]; 15.6 µM (inactive) in assay [20]; 25.5 µM (inactive) in [4]; 27.2 µM (inactive) in assay [5]; 47.8 µM (inactive) in [6]. Further, the GI50 in assay [7] is 24.9 µM (inactive); in assay [8], 61.7 µM (inactive); in assay [9], 38.4 µM (inactive); in [10] it was 26.5 µM (inactive); in assay [11] it was 18.7 µM; in assay [12] it was 26.8 µM (inactive). In addition, the GI50 in [13] was 27.5 µM (inactive); in assay [14], 33.5 µM (inactive); in [15], 19.5 µM (inactive); in [16] it was 41.9 µM (inactive); in assay [17] it was 28.3 µM (inactive).

Take `Cc1oc2c(c1C)S(=O)(=O)C(C#N)=C(N(C)C)N2`: the GI50 in assay [1], in assay [2], in [19], in [20], in assay [3] and in assay [5] was > 100 µM (inactive) throughout. For the same molecule, the GI50 is > 100 µM (inactive) in assay [6]; > 100 µM (inactive) in assay [18]; > 100 µM (inactive) in [7]; > 100 µM (inactive) in assay [8]; > 100 µM (inactive) in assay [10]; > 100 µM in assay [11]. Besides, the GI50 in assay [12], in assay [13], in assay [14], in [16] and in assay [17] was > 100 µM (inactive) throughout.
